Consider 29 compounds from patent US20250144094A1 (Erasca, Inc., priority 2021, published 2025).

SMILES strings stand for the structures.

This test deals with Recombinant human ULK1 (1-649) (Homo sapiens (Human), UniProt O75385). Nature of the test: ULK1 ADP Glo kinase activity assay (MBP substrate). The note with it: 25° C., 40 minutes, read-out: ULK1 biochemical IC50. The gist of the method: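 GST-tagged ULK1 (1-649) from Sf9 cells phosphorylated MBP, with ATP, for 40 min at 25 °C across a 12-point series from 10 uM. ADP formed was quantified by ADP-Glo luminescence against DMSO controls. IC50 came from a four-parameter variable-slope fit of log concentration.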
Recombinant human ULK1 (1-649), sequence (O75385 1-649): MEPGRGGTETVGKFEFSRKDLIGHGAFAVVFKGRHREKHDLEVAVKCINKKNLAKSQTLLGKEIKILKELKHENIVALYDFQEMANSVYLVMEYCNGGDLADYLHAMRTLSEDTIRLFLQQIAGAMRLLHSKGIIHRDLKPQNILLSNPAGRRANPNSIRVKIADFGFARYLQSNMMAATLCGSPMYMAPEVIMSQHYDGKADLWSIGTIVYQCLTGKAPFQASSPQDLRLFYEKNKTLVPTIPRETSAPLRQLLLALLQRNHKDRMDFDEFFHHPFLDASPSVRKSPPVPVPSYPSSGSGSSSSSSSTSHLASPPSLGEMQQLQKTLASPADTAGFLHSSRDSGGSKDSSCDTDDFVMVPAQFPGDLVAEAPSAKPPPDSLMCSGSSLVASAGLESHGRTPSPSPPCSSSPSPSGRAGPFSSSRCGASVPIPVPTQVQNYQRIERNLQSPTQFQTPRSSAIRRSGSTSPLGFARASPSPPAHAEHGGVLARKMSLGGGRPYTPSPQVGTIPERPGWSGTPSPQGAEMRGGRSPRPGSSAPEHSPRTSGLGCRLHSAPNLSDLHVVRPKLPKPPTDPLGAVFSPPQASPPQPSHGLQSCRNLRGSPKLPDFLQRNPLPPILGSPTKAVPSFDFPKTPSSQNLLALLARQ
Background: In ADP-Glo the light output rises with the ADP produced.
A word on the IC50: it is the concentration needed to halve the response being measured. Regarding `CS(=O)(=O)c1csc(-c2nc(Nc3cc4c(cc3Cl)CNCC4)ncc2Cl)c1` [Example 93, 7-chloro-N-(5-chloro-4-(4-(methylsulfonyl)thiophen-2-yl)pyrimidin-2-yl)-1,2,3,4-tetrahydroisoquinolin-6-amine], the IC50 is at most 10 nM. On to `Cc1cnc(Nc2cc3c(cc2Cl)CNCC3)nc1-c1cc(S(C)(=O)=O)cs1` [Example 94, 7-chloro-N-(5-methyl-4-(4-(methylsulfonyl)thiophen-2-yl)pyrimidin-2-yl)-1,2,3,4-tetrahydroisoquinolin-6-amine], for which the IC50 was at most 10 nM.

As to `CN1CCc2cc(Nc3ncc(C(F)(F)F)c(-c4cc(S(C)(=O)=O)cs4)n3)c(Cl)cc2C1` [Example 95, 7-chloro-2-methyl-N-(4-(4-(methylsulfonyl)thiophen-2-yl)-5-(trifluoromethyl)pyrimidin-2-yl)-1,2,3,4-tetrahydroisoquinolin-6-amine], the IC50 was at most 10 nM.

Turning to `COCc1sc(-c2nc(Nc3cc4c(cc3Cl)CNCC4)ncc2C(F)(F)F)cc1S(C)(=O)=O` [Example 96, 7-chloro-N-(4-(5-(methoxymethyl)-4-(methylsulfonyl)thiophen-2-yl)-5-(trifluoromethyl)pyrimidin-2-yl)-1,2,3,4-tetrahydroisoquinolin-6-amine], the IC50 lay in the range of 10 to 50 nM. As for `CS(=O)(=O)c1cc(-c2nc(Nc3cc4c(cc3Cl)CNCC4)ncc2C(F)(F)F)sc1C1CCOCC1` [Example 97, 7-chloro-N-(4-(4-(methylsulfonyl)-5-(tetrahydro-2H-pyran-4-yl)thiophen-2-yl)-5-(trifluoromethyl)pyrimidin-2-yl)-1,2,3,4-tetrahydroisoquinolin-6-amine], the IC50 was at most 10 nM.

For `CN1CCc2cc(Nc3ncc(C(F)(F)F)c(-c4cc(S(C)(=O)=O)cs4)n3)c(F)cc2C1` [Example 98, 7-fluoro-2-methyl-N-(4-(4-(methylsulfonyl)thiophen-2-yl)-5-(trifluoromethyl)pyrimidin-2-yl)-1,2,3,4-tetrahydroisoquinolin-6-amine], the IC50 is at most 10 nM. `CS(=O)(=O)c1csc(-c2nc(Nc3cc4c(cc3Cl)CCNC4)ncc2C(F)(F)F)c1` [Example 99, 6-chloro-N-(4-(4-(methylsulfonyl)thiophen-2-yl)-5-(trifluoromethyl)pyrimidin-2-yl)-1,2,3,4-tetrahydroisoquinolin-7-amine]: the IC50 was at most 10 nM. As to `CN1CCc2cc(Cl)c(Nc3ncc(C(F)(F)F)c(-c4cc(S(C)(=O)=O)cs4)n3)cc2C1` [Example 100, 6-chloro-2-methyl-N-(4-(4-(methylsulfonyl)thiophen-2-yl)-5-(trifluoromethyl)pyrimidin-2-yl)-1,2,3,4-tetrahydroisoquinolin-7-amine], the IC50 is at most 10 nM.

Turning to `CS(=O)(=O)c1csc(-c2nc(Nc3ccc4c(c3)CNCC4)ncc2C(F)(F)F)c1` [Example 101, N-[4-(4-methanesulfonylthiophen-2-yl)-5-(trifluoromethyl)pyrimidin-2-yl]-1,2,3,4-tetrahydroisoquinolin-7-amine], the IC50 is at most 10 nM. As to `CN1CCc2ccc(Nc3ncc(C(F)(F)F)c(-c4cc(S(C)(=O)=O)cs4)n3)cc2C1` [Example 102, N-[4-(4-methanesulfonylthiophen-2-yl)-5-(trifluoromethyl)pyrimidin-2-yl]-2-methyl-1,2,3,4-tetrahydroisoquinolin-7-amine], the IC50 was at most 10 nM. With `CN1CCN(c2ccc(Nc3ncc(C(F)(F)F)c(-c4cc(S(C)(=O)=O)cs4)n3)cc2)CC1` [Example 103, N-(4-(4-methylpiperazin-1-yl)phenyl)-4-(4-(methylsulfonyl)thiophen-2-yl)-5-(trifluoromethyl)pyrimidin-2-amine], the IC50 was at most 10 nM. With `CS(=O)(=O)c1cc(-c2nc(Nc3cc4c(cc3Cl)CNCC4)ncc2C(F)(F)F)sc1C1CCS(=O)(=O)CC1` [Example 104, 4-(5-(2-((7-chloro-1,2,3,4-tetrahydroisoquinolin-6-yl)amino)-5-(trifluoromethyl)pyrimidin-4-yl)-3-(methylsulfonyl)thiophen-2-yl)tetrahydro-2H-thiopyran 1,1-dioxide], the IC50 was at most 10 nM.

`CS(=O)(=O)c1csc(-c2nc(Nc3ccc4c(c3)CCNC4)ncc2C(F)(F)F)c1` [Example 105, N-(4-(4-(methylsulfonyl)thiophen-2-yl)-5-(trifluoromethyl)pyrimidin-2-yl)-1,2,3,4-tetrahydroisoquinolin-6-amine]: the IC50 is at most 10 nM. Take `CS(=O)(=O)c1csc(-c2nc(Nc3cc4c(cc3Cl)CN(C3CC3)CC4)ncc2C(F)(F)F)c1` [Example 107, 7-chloro-2-cyclopropyl-N-[4-(4-methylsulfonyl-2-thienyl)-5-(trifluoromethyl)pyrimidin-2-yl]-3,4-dihydro-1H-isoquinolin-6-amine]: the IC50 was in the range of 10 to 50 nM. With `CS(=O)(=O)c1csc(-c2nc(Nc3cc4c(cc3Cl)CN(CC(F)(F)F)CC4)ncc2C(F)(F)F)c1` [Example 108, 7-chloro-N-[4-(4-methylsulfonyl-2-thienyl)-5-(trifluoromethyl)pyrimidin-2-yl]-2-(2,2,2-trifluoroethyl)-3,4-dihydro-1H-isoquinolin-6-amine], the IC50 is 100 to 500 nM.

Take `CN1CCc2cc(Nc3ncc(C(F)(F)F)c(-c4cc5c(s4)CN(C)CCS5(=O)=O)n3)c(Cl)cc2C1` [Example 109, 7-chloro-2-methyl-N-[4-(4-methyl-1,1-dioxo-3,5-dihydro-2H-thieno[2,3-f][1,4]thiazepin-7-yl)-5-(trifluoromethyl)pyrimidin-2-yl]-3,4-dihydro-1H-isoquinolin-6-amine]: the IC50 is at most 10 nM. `CS(=O)(=O)c1csc(-c2nc(Nc3cc4c(cc3F)CCNC4)ncc2C(F)(F)F)c1` [Example 110, 6-fluoro-N-[4-(4-methylsulfonyl-2-thienyl)-5-(trifluoromethyl)pyrimidin-2-yl]-1,2,3,4-tetrahydroisoquinolin-7-amine]: the IC50 was at most 10 nM. Next, `CN1CCc2cc(F)c(Nc3ncc(C(F)(F)F)c(-c4cc(S(C)(=O)=O)cs4)n3)cc2C1` [Example 111, 6-fluoro-2-methyl-N-[4-(4-methylsulfonyl-2-thienyl)-5-(trifluoromethyl)pyrimidin-2-yl]-3,4-dihydro-1H-isoquinolin-7-amine]: at most 10 nM. Regarding `CS(=O)(=O)c1csc(-c2nc(Nc3cc4c(cc3Cl)CN(C3CC3)C4)ncc2C(F)(F)F)c1` [Example 113, 6-chloro-2-cyclopropyl-N-[4-(4-methylsulfonyl-2-thienyl)-5-(trifluoromethyl)pyrimidin-2-yl]isoindolin-5-amine], the IC50 lay in the range of 10 to 50 nM. In the case of `CS(=O)(=O)c1csc(-c2nc(Nc3cc4c(cc3F)CN(C3CC3)C4)ncc2C(F)(F)F)c1` [Example 114, 2-cyclopropyl-6-fluoro-N-[4-(4-methylsulfonyl-2-thienyl)-5-(trifluoromethyl)pyrimidin-2-yl]isoindolin-5-amine], the IC50 was in the range of 10 to 50 nM. As for `CN1CCc2cc(Nc3ncc(C(F)(F)F)c(-c4cc(S(C)(=O)=O)cs4)n3)c(C3CC3)cc2C1` [Example 115, 7-cyclopropyl-2-methyl-N-[4-(4-methylsulfonyl-2-thienyl)-5-(trifluoromethyl)pyrimidin-2-yl]-3,4-dihydro-1H-isoquinolin-6-amine], the IC50 is at most 10 nM. Turning to `CN1CCc2cc(Nc3ncc(C(F)(F)F)c(-c4cc5c(s4)C(=O)N(C)CCS5(=O)=O)n3)c(Cl)cc2C1` [Example 116, 7-[2-[(7-chloro-2-methyl-3,4-dihydro-1H-isoquinolin-6-yl)amino]-5-(trifluoromethyl)pyrimidin-4-yl]-4-methyl-1,1-dioxo-2,3-dihydrothieno[2,3-f][1,4]thiazepin-5-one], the IC50 is at most 10 nM. Turning to `O=S1(=O)CCNCc2sc(-c3nc(Nc4cc5c(cc4Cl)CN(C4CC4)CC5)ncc3C(F)(F)F)cc21` [Example 117, 7-chloro-2-cyclopropyl-N-[4-(1,1-dioxo-2,3,4,5-tetrahydrothieno[2,3-f][1,4]thiazepin-7-yl)-5-(trifluoromethyl)pyrimidin-2-yl]-3,4-dihydro-1H-isoquinolin-6-amine], the IC50 is at most 10 nM. Regarding `CS(=O)(=O)c1csc(-c2nc(Nc3cc4c(cc3F)CN(C3CC3)CC4)ncc2C(F)(F)F)c1` [Example 118, 2-cyclopropyl-7-fluoro-N-[4-(4-methylsulfonyl-2-thienyl)-5-(trifluoromethyl)pyrimidin-2-yl]-3,4-dihydro-1H-isoquinolin-6-amine], the IC50 was in the range of 10 to 50 nM.

Take `Cc1nn(C2CCN(C)CC2)cc1Nc1ncc(C(F)(F)F)c(-c2cc(S(C)(=O)=O)cs2)n1` [Example 119, N-[3-methyl-1-(1-methyl-4-piperidyl)pyrazol-4-yl]-4-(4-methylsulfonyl-2-thienyl)-5-(trifluoromethyl)pyrimidin-2-amine]: the IC50 was at most 10 nM. Next, `Cc1nn(C2CN(C)C2)cc1Nc1ncc(C(F)(F)F)c(-c2cc(S(C)(=O)=O)cs2)n1` [Example 120, N-[3-methyl-1-(1-methylazetidin-3-yl)pyrazol-4-yl]-4-(4-methylsulfonyl-2-thienyl)-5-(trifluoromethyl)pyrimidin-2-amine]: 10 to 50 nM; `CS(=O)(=O)c1csc(-c2nc(Nc3cc(C4CNC4)ccc3Cl)ncc2C(F)(F)F)c1` [Example 121, N-(5-(azetidin-3-yl)-2-chlorophenyl)-4-(4-(methylsulfonyl)thiophen-2-yl)-5-(trifluoromethyl)pyrimidin-2-amine]: 50 to 100 nM.

Take `CN1CC(c2ccc(Cl)c(Nc3ncc(C(F)(F)F)c(-c4cc(S(C)(=O)=O)cs4)n3)c2)C1` [Example 122, N-(2-chloro-5-(1-methylazetidin-3-yl)phenyl)-4-(4-(methylsulfonyl)thiophen-2-yl)-5-(trifluoromethyl)pyrimidin-2-amine]: the IC50 fell in the range of 100 to 500 nM. For the compound `Cc1nn(C2CNC2)cc1Nc1ncc(C(F)(F)F)c(-c2cc(S(C)(=O)=O)cs2)n1` [Example 123, N-(1-(azetidin-3-yl)-3-methyl-1H-pyrazol-4-yl)-4-(4-(methylsulfonyl)thiophen-2-yl)-5-(trifluoromethyl)pyrimidin-2-amine], the IC50 was 10 to 50 nM.
